One block for each molecule: values may come before it.
How the values were obtained:
40 distinct BDs = experiment: BROMOscan BromoMAX panel; format: binding, human; conditions: for binding to other BDs in BROMOscan: 2 μM, BDs other than BRD7/BRD9; for selectivity in BROMOscan panel: 2 μM concentration
His-tagged BRD7 BD = target: T1, His-tagged BRD7 BD (Homo sapiens, UniProt Q9NPI1); experiment: Thermal shift assay; format: binding; conditions: compounds at 25, 10, or 1 μM
T1 sequence (Q9NPI1 131-235 limits assumed): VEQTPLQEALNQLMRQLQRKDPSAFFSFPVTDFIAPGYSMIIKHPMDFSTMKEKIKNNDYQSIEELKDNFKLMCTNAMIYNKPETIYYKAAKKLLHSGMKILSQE

His-tagged BRD9 BD = target: T2, His-tagged BRD9 BD (Homo sapiens, UniProt Q9H8M2); experiment: Thermal shift assay; format: binding; conditions: compounds at 25, 10, or 1 μM
T2 sequence (Q9H8M2 136-240 limits assumed): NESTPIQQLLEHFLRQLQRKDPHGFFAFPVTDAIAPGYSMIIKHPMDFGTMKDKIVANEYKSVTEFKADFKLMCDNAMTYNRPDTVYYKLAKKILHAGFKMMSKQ

BRD9 BD = target: T3, BRD9 BD (Homo sapiens, UniProt Q9H8M2); experiment: Microscale thermophoresis; format: binding; conditions: 50 nM His-tagged BRD9, ligand from 50 μM
T3 sequence (Q9H8M2 136-240 limits assumed): T2 sequence (Q9H8M2 136-240 limits assumed)

BRPF1B BD [1] = target: T4, BRPF1B BD (Homo sapiens, UniProt P55201); experiment: BROMOscan BromoMAX panel; format: binding; conditions: 2 μM
T4 sequence (P55201 628-732 limits assumed): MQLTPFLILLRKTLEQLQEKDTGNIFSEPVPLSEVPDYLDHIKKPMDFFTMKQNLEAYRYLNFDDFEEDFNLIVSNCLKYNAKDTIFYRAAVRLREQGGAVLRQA

His-tagged BRPF1B BD = target: T5, His-tagged BRPF1B BD (Homo sapiens, UniProt P55201); experiment: Thermal shift assay; format: binding; conditions: compounds at 25, 10, or 1 μM
T5 sequence (P55201 628-732 limits assumed): T4 sequence (P55201 628-732 limits assumed)

LNCaP cells [2] = experiment: Growth inhibition, CellTiter-Glo, 4 days; format: cell-based, human; conditions: 5, 1, and 0.1 μM
PC-3 cells = experiment: Growth inhibition, CellTiter-Glo, 4 days; format: cell-based, human; conditions: 5, 1, and 0.1 μM
[3] = test system: LNCaP, C4–2 and PC3 cells; experiment: Dose curves over 7 days of treatment, CellTiter-Glo; format: cell-based, human
22Rv1 cells = experiment: On-target activity assessment in 22Rv1 cells with BRD7 knockdown; format: cell-based, human; conditions: 2.5 or 5 μM, 4 days, two shRNA constructs
BRD7 BD = target: T6, BRD7 BD (Homo sapiens, UniProt Q9NPI1); experiment: NanoBRET target engagement in HEK293T cells
T6 sequence (Q9NPI1 131-235 limits assumed): T1 sequence (Q9NPI1 131-235 limits assumed)

BRPF1B BD [4] = target: T4, BRPF1B BD; experiment: NanoBRET target engagement in HEK293T cells; format: cell-based
LNCaP cells [5] = experiment: RNA-Seq gene expression in LNCaP cells; format: cell-based, human; conditions: 1 μM, 72 h
BRD9 = target: T7, BRD9 (Homo sapiens, UniProt Q9H8M2); experiment: Cell fractionation assay, BRD9 bound to chromatin; format: cell-based; conditions: HEK293T, 10 μM, 24 h
T7 sequence (Q9H8M2 1-597): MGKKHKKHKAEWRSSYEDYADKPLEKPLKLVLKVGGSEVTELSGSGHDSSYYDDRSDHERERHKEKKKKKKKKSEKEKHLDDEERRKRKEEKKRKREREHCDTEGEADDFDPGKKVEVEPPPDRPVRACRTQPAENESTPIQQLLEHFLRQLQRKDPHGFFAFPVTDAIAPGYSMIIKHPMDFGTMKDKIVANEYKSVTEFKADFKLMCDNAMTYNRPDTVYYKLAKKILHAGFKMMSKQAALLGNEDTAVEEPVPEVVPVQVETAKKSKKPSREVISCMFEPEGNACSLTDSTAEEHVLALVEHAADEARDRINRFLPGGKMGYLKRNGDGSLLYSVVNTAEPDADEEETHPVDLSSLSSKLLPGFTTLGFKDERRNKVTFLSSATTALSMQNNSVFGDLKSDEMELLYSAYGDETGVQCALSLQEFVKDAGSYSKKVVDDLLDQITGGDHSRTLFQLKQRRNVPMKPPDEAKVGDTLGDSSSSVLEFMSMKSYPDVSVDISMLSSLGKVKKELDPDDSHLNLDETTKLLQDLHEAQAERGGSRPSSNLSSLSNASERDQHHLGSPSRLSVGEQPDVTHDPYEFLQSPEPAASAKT

- binding to other BDs in BROMOscan (40 distinct BDs): no binding to other BDs
- stabilization / Tm increase of BRD7 BD (TSA) (His-tagged BRD7 BD): stabilized and increased the Tm
- stabilization / Tm increase of BRD9 BD (TSA) (His-tagged BRD9 BD): stabilized and increased the Tm
Structure (SMILES): Cc1cc(C)cc(-c2cn(C)c(=O)c3ccccc23)c1 [1–38, 4-(3,5-Dimethylphenyl)-2-methylisoquinolin-1(2H)-one]

- binding to other BDs in BROMOscan (40 distinct BDs): no binding to other BDs
Structure (SMILES): COc1ccc2ccccc2c1-c1ccc2c(C)cc(=O)n(C)c2c1 [2–81, 7-(2-Methoxynaphthalen-1-yl)-1,4-dimethylquinolin-2(1H)-one]

- stabilization / Tm increase of BRD7 BD (TSA) (His-tagged BRD7 BD): stabilized only BRD9 BD
- stabilization / Tm increase of BRD9 BD (TSA) (His-tagged BRD9 BD): stabilized only BRD9 BD
Structure (SMILES): COc1ccc(-c2cn(C)c(=O)c3ccccc23)c(OC)n1 [2–88, 4-(2,6-Dimethoxypyridin-3-yl)-2-methylisoquinolin-1(2H)-one]

Further lines, the molecule ahead of its results:

Structure (SMILES): COc1ccc(-c2ccc3c(C)cc(=O)n(C)c3c2)c(C)n1 [1–78, 7-(6-Methoxy-2-methylpyridin-3-yl)-1,4-dimethylquinolin-2(1H)-one]
- binding to BRD9 (MST) (BRD9 BD): no binding
- selectivity in BROMOscan panel (40 distinct BDs): showed selectivity for BRD7 over BRD9
- binding to BRPF1B BD in BROMOscan (BRPF1B BD [1]): off-target binding
- stabilization / Tm increase of BRD7 BD (TSA) (His-tagged BRD7 BD): increased the Tm
- stabilization of BRPF1B BD (TSA) (His-tagged BRPF1B BD): modest stabilization of BRPF1B at the highest concentration (25 μM)
- LNCaP cell growth (LNCaP cells [2]): inhibited the cell growth
- PC-3 cell growth (PC-3 cells): active in PC-3 only at the highest concentration
- sensitivity of LNCaP and C4–2 cells relative to PC3 cells [3]: 3−6 times
- viability of 22Rv1 cells with BRD7 knockdown (22Rv1 cells): not significantly affected
- IC50 (BRD7 BD): 800 nM

Structure (SMILES): COc1ccc(-c2ccc3c(C)cc(=O)n(C)c3c2)c(OC)n1 [2–77, 7-(2,6-Dimethoxypyridin-3-yl)-1,4-dimethylquinolin-2(1H)-one]
- binding to BRD9 (MST) (BRD9 BD): no binding
- selectivity in BROMOscan panel (40 distinct BDs): showed selectivity for BRD7 over BRD9
- binding to BRPF1B BD in BROMOscan (BRPF1B BD [1]): off-target binding
- IC50 (BRPF1B BD [4]): > 10000 nM
- stabilization / Tm increase of BRD7 BD (TSA) (His-tagged BRD7 BD): increased the Tm
- LNCaP cell growth (LNCaP cells [2]): inhibited the cell growth
- PC-3 cell growth (PC-3 cells): active in PC-3 only at the highest concentration
- sensitivity of LNCaP and C4–2 cells relative to PC3 cells [3]: 3−6 times
- viability of 22Rv1 cells with BRD7 knockdown (22Rv1 cells): less affected
- GSEA Hallmark_Androgen_Response enrichment (LNCaP cells [5]): significant and strong negative enrichment
- IC50 (BRD7 BD): 1200 nM

Structure (SMILES): COc1cc(-c2cn(C)c(=O)c3cnccc23)cc(OC)c1CN(C)C [BI7273, reference compound]
- stabilization / Tm increase of BRD7 BD (TSA) (His-tagged BRD7 BD): binding and stabilization
- LNCaP cell growth (LNCaP cells [2]): little to no effect
- PC-3 cell growth (PC-3 cells): little to no effect

Structure (SMILES): COc1ccccc1C(=O)Nc1cc2c(cc1N1CCCCC1)n(C)c(=O)n2C [GSK-5959, reference compound]
- LNCaP cell growth (LNCaP cells [2]): little to no effect
- PC-3 cell growth (PC-3 cells): little to no effect

Structure (SMILES): CCn1cc(-c2cccc(C(F)(F)F)c2)c2sc(C(=N)NC3CCS(=O)(=O)CC3)cc2c1=O [I-BRD9]
- BRD9 bound to chromatin after treatment (BRD9): significantly reduced BRD9 from chromatin
